Measurements from PubChem BioAssay (NCI).
Values joined by “and” are separate entries in the source; they are usually repeats but may differ in a detail not shown here. Equal values may be shown once.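 Compound exposure: 48 hours, 5 concentrations, 96-well plates. GI50 is the concentration that inhibits growth by half. Definition used: TGI = concentration required for complete inhibition of growth.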

Assays:
P388/ADR leukemia = experiment: NCI tumour cell line growth inhibition, 48 h
P388 leukemia = experiment: NCI tumour cell line growth inhibition, 48 h

| Structure (SMILES) | TGI (P388/ADR leukemia) [nM] | TGI (P388 leukemia) [nM] | GI50 (P388/ADR leukemia) | GI50 (P388 leukemia) |
| --- | --- | --- | --- | --- |
| O=C1N[C@H]2[C@H](O)[C@H](O)[C@@H](O)[C@H](O)[C@@H]2c2cc3c(c(O)c21)OCO3 | 210 | 164 |  |  |
| C[C@@](O)(/C=C/[C@H]1CC=CC(=O)O1)[C@@H](C[C@@H](O)\C=C/C=C\C=C\CO)OP(=O)(O)O |  |  | 963 nM and 989 nM | 1410 nM and 567 nM |
